Patent publication US20060069132A1, “Azolecarboxamide herbicides” (priority 2004, published 2006)

Key:
[1] = system: smallflower umbrella sedge; assay: Test C flooded paddy test; format: in vivo, Cyperus difformis
barnyardgrass [2] = assay: Test B flooded paddy test; format: in vivo, Echinochloa crus-galli; conditions: 1000 g ai/ha, scale 0 to 100 (0 no effect, 100 complete control)
Outline: (§1)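 Paddy species grown to the 2-leaf stage under flooding; blackgrass sprayed postemergence at 2–18 cm (1- to 4-leaf stage). Plants kept in a greenhouse for 13 to 15 days, then visually rated against controls on 0 (no effect) to 100 (complete control).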

giant foxtail = assay: Test B pre-/postemergence herbicide test; format: in vivo, Setaria faberi; conditions: for Foxtail, Giant plant response rating: postemergence
Outline: (§2)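 Test chemicals in a non-phytotoxic solvent mixture with surfactant were applied preemergence to seeded species and postemergence to plants 2-18 cm tall (1- to 4-leaf stage); rice and barnyardgrass were also tested in a flooded paddy at the 2-leaf stage. Visual rating versus controls after 13-15 days in greenhouse, scale 0 (no effect) to 100 (complete control).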

corn = assay: Test B pre-/postemergence herbicide test; format: in vivo, Zea mays; conditions: for Corn plant response rating: postemergence
Outline: as §2

large crabgrass = assay: Test B pre-/postemergence herbicide test; format: in vivo, Digitaria sanguinalis; conditions: for Crabgrass, Large plant response rating: postemergence
Outline: as §2

rice [3] = assay: Test C flooded paddy test; format: in vivo, Oryza sativa
Outline: (§3)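 Postemergence sprays applied to plants 2 to 18 cm tall (1- to 4-leaf stage); paddy species grown to 2-leaf stage under flooding. After 12 to 14 days in greenhouse, visual rating versus untreated controls on 0–100 scale (0 no effect, 100 complete control).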

barnyardgrass [4] = assay: Test B pre-/postemergence herbicide test; format: in vivo, Echinochloa crus-galli; conditions: for Barnyardgrass plant response rating: postemergence, scale 0 (no effect) to 100 (complete control)
Outline: as §2

[5] = system: small flower umbrella sedge; assay: Test B flooded paddy test; format: in vivo, Cyperus difformis; conditions: 1000 g ai/ha, scale 0 to 100 (0 no effect, 100 complete control)
Outline: as §1

barnyardgrass [6] = assay: Test C flooded paddy test; format: in vivo, Echinochloa crus-galli
Outline: as §3

wheat = assay: Test B postemergence herbicide test; format: in vivo, Triticum aestivum; parameters: key to Wheat plant response rating: 0 = no effect, 100 = complete control; conditions: postemergence
Outline: (§4)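 Postemergence plants were sprayed with formulated test chemicals at 2 to 18 cm height (1- to 4-leaf stage); paddy species were grown to the 2-leaf stage. After 13 to 15 days in a greenhouse, injury was rated visually against untreated controls on a 0–100 scale (0 = no effect, 100 = complete control).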

cocklebur = assay: Test B pre-/postemergence herbicide test; format: in vivo, Xanthium strumarium; conditions: for Cocklebur plant response rating: postemergence, scale 0 (no effect) to 100 (complete control)
Outline: as §2

rice [7] = assay: Test B pre-/postemergence herbicide test; format: in vivo, Oryza sativa; conditions: 0 = no effect, 100 = complete control, preemergence
Outline: as §2

rice [8] = assay: Test B flooded paddy test; format: in vivo, Oryza sativa; conditions: 1000 g ai/ha, scale 0 to 100 (0 no effect, 100 complete control)
Outline: as §1

ducksalad [9] = assay: Test B flooded paddy test; format: in vivo, Heteranthera limosa; conditions: 1000 g ai/ha, scale 0 to 100 (0 no effect, 100 complete control)
Outline: as §1

blackgrass = assay: Test B postemergence herbicide test; format: in vivo, Alopecurus myosuroides; conditions: postemergence, visual rating, scale 0 (no effect) to 100 (complete control)
Outline: as §1

wild oat = assay: Test B postemergence herbicide test; format: in vivo, Avena fatua; conditions: postemergence
Outline: as §4

pigweed = assay: Test B pre-/postemergence herbicide test; format: in vivo, Amaranthus retroflexus; conditions: for Pigweed plant response rating: postemergence
Outline: as §2

velvetleaf = assay: Test B pre-/postemergence herbicide test; format: in vivo, Abutilon theophrasti; conditions: for Velvetleaf plant response rating: postemergence
Outline: as §2

Surinam grass = assay: Test B pre-/postemergence herbicide test; format: in vivo, Urochloa decumbens; conditions: for Surinam Grass plant response rating: postemergence
Outline: as §2

ducksalad [10] = assay: Test C flooded paddy test; format: in vivo, Heteranthera limosa
lambsquarters = assay: Test B pre-/postemergence herbicide test; format: in vivo, Chenopodium album; conditions: for Lambsquarters plant response rating: postemergence
Outline: as §2

morningglory = assay: Test B pre-/postemergence herbicide test; format: in vivo, Ipomoea coccinea; conditions: for Morningglory plant response rating: postemergence
Outline: as §2

[11] = 62 g ai/ha, scale 0 to 100 (0 no effect, 100 complete control)
[12] = 125 g ai/ha, scale 0 to 100 (0 no effect, 100 complete control)
[13] = 250 g ai/ha, scale of 0 to 100, 0 is no effect, 100 is complete control
[14] = 500 g ai/ha, visual rating after 12 to 14 days, scale 0 to 100 (0 no effect, 100 complete control)
[15] = 125 g ai/ha, 0 = no effect, 100 = complete control, preemergence
[16] = 500 g ai/ha, visual rating, 0 = no effect, 100 = complete control, preemergence
[17] = 125 g ai/ha, visual rating, scale 0 (no effect) to 100 (complete control)
[18] = 500 g ai/ha, scale 0 to 100, 0 is no effect, 100 is complete control

SMILES: CCn1nc(C(C)(C)C)cc1C(=O)Nc1cc(C(=O)N2CCOCC2)ccc1F [Compound 243]
- Sedge, Umbrella plant response rating [1, 11]: 75
- Sedge, Umbrella plant response rating [1, 12]: 80
- Sedge, Umbrella plant response rating [1, 13]: 80
- Plant response rating, Sedge, Umbrella [1, 14]: 80
- Barnyardgrass plant response rating (barnyardgrass [2]): 90
- Foxtail, Giant plant response rating (0 to 100 scale) (giant foxtail; [15]): 50
- Plant response rating, Foxtail, Giant (giant foxtail; [16]): 80
- Foxtail, Giant plant response rating (giant foxtail; [17]): 10
- Foxtail, Giant plant response rating (giant foxtail; [18]): 20
- Corn plant response rating (0 to 100 scale) (corn; [15]): 20
- Plant response rating, Corn (corn; [16]): 50
- Corn plant response rating (corn; [17]): 10
- Corn plant response rating (corn; [18]): 10
- Crabgrass, Large plant response rating (0 to 100 scale) (large crabgrass; [15]): 60
- Plant response rating, Crabgrass, Large (large crabgrass; [16]): 100
- Crabgrass, Large plant response rating (large crabgrass; [17]): 10
- Crabgrass, Large plant response rating (large crabgrass; [18]): 10
- Rice plant response rating (rice [3]; [11]): 15
- Rice plant response rating (rice [3]; [12]): 75
- Rice plant response rating (rice [3]; [13]): 80
- Plant response rating, Rice (rice [3]; [14]): 90
- Barnyardgrass plant response rating (0 to 100 scale) (barnyardgrass [4]; [15]): 70
- Plant response rating, Barnyardgrass (barnyardgrass [4]; [16]): 90
- Barnyardgrass plant response rating (barnyardgrass [4]; 125 g ai/ha, visual rating): 10
- Barnyardgrass plant response rating (barnyardgrass [4]; 500 g ai/ha, visual rating): 20
- Sedge, Umbrella plant response rating [5]: 80
- Barnyardgrass plant response rating (barnyardgrass [6]; [11]): 0
- Barnyardgrass plant response rating (barnyardgrass [6]; [12]): 65
- Barnyardgrass plant response rating (barnyardgrass [6]; [13]): 75
- Plant response rating, Barnyardgrass (barnyardgrass [6]; [14]): 85
- Wheat plant response rating (wheat; [17]): 0
- Wheat plant response rating (wheat; [18]): 0
- Cocklebur plant response rating (0 to 100 scale) (cocklebur; [15]): 0
- Plant response rating, Cocklebur (cocklebur; [16]): 20
- Cocklebur plant response rating (cocklebur; 125 g ai/ha, visual rating): 10
- Cocklebur plant response rating (cocklebur; 500 g ai/ha, visual rating): 30
- Rice plant response rating (0 to 100 scale) (rice [7]; 125 g ai/ha): 20
- Plant response rating, Rice (rice [7]; 500 g ai/ha, visual rating): 80
- Rice plant response rating (rice [8]): 90
- Ducksalad plant response rating (ducksalad [9]): 90
- Blackgrass plant response rating (blackgrass; 125 g ai/ha): 0
- Blackgrass plant response rating (blackgrass; 500 g ai/ha): 0
- Oat, Wild plant response rating (wild oat; [17]): 0
- Oat, Wild plant response rating (wild oat; [18]): 20
- Pigweed plant response rating (0 to 100 scale) (pigweed; [15]): 60
- Plant response rating, Pigweed (pigweed; [16]): 100
- Pigweed plant response rating (pigweed; [17]): 20
- Pigweed plant response rating (pigweed; [18]): 60
- Velvetleaf plant response rating (0 to 100 scale) (velvetleaf; [15]): 40
- Plant response rating, Velvetleaf (velvetleaf; [16]): 100
- Velvetleaf plant response rating (velvetleaf; [17]): 50
- Velvetleaf plant response rating (velvetleaf; [18]): 60
- Surinam Grass plant response rating (0 to 100 scale) (Surinam grass; [15]): 60
- Plant response rating, Surinam Grass (Surinam grass; [16]): 80
- Surinam Grass plant response rating (Surinam grass; [17]): 10
- Surinam Grass plant response rating (Surinam grass; [18]): 20
- Ducksalad plant response rating (ducksalad [10]; [11]): 75
- Ducksalad plant response rating (ducksalad [10]; [12]): 85
- Ducksalad plant response rating (ducksalad [10]; [13]): 90
- Plant response rating, Ducksalad (ducksalad [10]; [14]): 90
- Lambsquarters plant response rating (0 to 100 scale) (lambsquarters; [15]): 90
- Plant response rating, Lambsquarters (lambsquarters; [16]): 100
- Lambsquarters plant response rating (lambsquarters; [17]): 70
- Lambsquarters plant response rating (lambsquarters; [18]): 80
- Morningglory plant response rating (0 to 100 scale) (morningglory; [15]): 0
- Plant response rating, Morningglory (morningglory; [16]): 0
- Morningglory plant response rating (morningglory; [17]): 0
- Morningglory plant response rating (morningglory; [18]): 20
